According to patent US12466831B2, “Substituted amino triazolopyrimidine and amino triazolopyrazine adenosine receptor antagonists, pharmaceutical compositions and their use” (Merck Sharp & Dohme LLC, priority 2018, dated 2025):

What was measured:
[1] = biological target: T1, human A2a adenosine receptor (Homo sapiens, UniProt P29274); test: A2a binding affinity using radioligand binding, Method (A); details: Method (A): [3H]SCH58261 filtration binding, membranes expressing human A2a
T1 construct: purchased Perkin Elmer RBHA2aM400UA; host or cells: HEK293 or CHO cells (recombinant expression)
T1 sequence (P29274 whole entry): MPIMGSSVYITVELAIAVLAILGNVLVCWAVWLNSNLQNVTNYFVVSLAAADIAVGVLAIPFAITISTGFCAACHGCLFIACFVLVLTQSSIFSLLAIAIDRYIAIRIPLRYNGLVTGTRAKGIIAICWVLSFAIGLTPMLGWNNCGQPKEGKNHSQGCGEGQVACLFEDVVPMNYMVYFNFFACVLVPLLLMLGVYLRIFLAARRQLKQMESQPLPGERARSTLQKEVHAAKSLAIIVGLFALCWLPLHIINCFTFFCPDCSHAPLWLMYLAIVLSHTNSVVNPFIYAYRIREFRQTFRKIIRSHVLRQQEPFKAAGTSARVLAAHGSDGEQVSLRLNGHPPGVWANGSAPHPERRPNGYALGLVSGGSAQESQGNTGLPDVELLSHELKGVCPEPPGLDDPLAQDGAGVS
Summary of the method: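 Filtration binding used human A2a membranes from HEK293 or CHO cells, preincubated with compound 15–30 min. [3H]SCH58261 (diluted to 4 nM) was then added in Tris pH 7.4, MgCl2, Tween20 buffer, with 60 min at room temperature. Non-specific binding was defined by 1 μM ZM241385, and IC50 came from a 4-parameter logistic fit.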

[2] = biological target: T2, human A2b adenosine receptor (Homo sapiens, UniProt P29275); test: A2b binding affinity, radioligand filtration binding assay; details: tritiated proprietary A2b antagonist, HEK293 membranes expressing human A2b
T2 construct: purchased Perkin Elmer ES-013-C; host or cells: HEK293 cells recombinantly expressing the receptor; membranes made from them
T2 sequence (P29275 1-332): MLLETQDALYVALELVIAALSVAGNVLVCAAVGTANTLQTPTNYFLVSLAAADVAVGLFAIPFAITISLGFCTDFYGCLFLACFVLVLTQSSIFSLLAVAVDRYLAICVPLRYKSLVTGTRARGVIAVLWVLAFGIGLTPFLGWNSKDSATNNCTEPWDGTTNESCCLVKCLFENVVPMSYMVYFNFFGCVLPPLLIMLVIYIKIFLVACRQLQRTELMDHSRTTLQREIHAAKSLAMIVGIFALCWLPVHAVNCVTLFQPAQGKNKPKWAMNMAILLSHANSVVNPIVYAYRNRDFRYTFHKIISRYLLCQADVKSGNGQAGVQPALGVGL
Summary of the method: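 Membranes from HEK293 cells expressing human A2b were preincubated with compound 15–30 min at room temperature, then incubated 60 min at room temperature with a tritiated proprietary A2b antagonist in PBS pH 7.4 without Mg/Ca. Non-specific binding defined with 20 μM NECA; filter-bound radioactivity counted and IC50 fitted by 4-parameter logistic.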

[3] = biological target: T1, human A2a adenosine receptor; test: A2a binding affinity using SPA, Method (B); details: Method (B): [3H]SCH58261 SPA, membranes expressing human A2a
Excerpt: Method (A) describes the procedure used to measure A2a binding affinity using radioligand binding. Method (B) describes the procedure used to measure A2a binding affinity using SPA technology. The method used to measure A2b binding affinity is also described below. The method used to determine the A2a IC50 value reported for each compound in the table is indicated next to the reported value. The A2b IC50 value measured using the A2b binding affinity assay is shown in the table next to the compound under the corresponding A2a value.
The A2a receptor affinity binding assay measured the amount of binding of a tritiated ligand with high affinity for the A2a adenosine receptor to membranes made from HEK293 or CHO cells recombinantly expressing the human A2a adenosine receptor, in the presence of varying concentrations of a compound of the invention. The data were generated using either filtration binding or a homogenous scintillation proximity assay (SPA).
Method (B): Measurement of A2a Binding Affinity Using SPA
Binding affinity using SPA was conducted as follows. Test compounds (50 nL) were dispensed into individual wells of a 384-well OptiPlate™ well (Perkin Elmer) by Echo® acoustic liquid transfer (Labcyte). 20 μL of 1.25 nM [^3H] SCH58261 ((7-(2-phenylethyl)-5-amino-2-(2-furyl)-pyrazolo-[4,3-e]-1,2,4-triazolo[1,5-c]pyrimidine)) in DPBS assay buffer (Dulbecco's phosphate buffered saline without calcium and magnesium, ThermoFisher Scientific, Cat. No. A1285601) supplemented with 10 mM MgCl2 was added. A2a receptor-expressing membranes were incubated with 20 μg/mL adenosine deaminase (Roche, Cat. No. 10 102 105 001) for 15 minutes at room temperature. The receptor-expressing membranes were then combined with wheat germ agglutinin-coated yttrium silicate SPA beads (GE Healthcare, Cat. No. RPNQ0023) in a ratio of […] (w/w) and incubated for 30 minutes at room temperature. 30 μL of the membrane/bead mixture (0.25 μg and 25 μg per well respectively) were added to the 384-well OptiPlate™ well. To define total and non-specific binding, wells containing 1% DMSO or 1 μM CGS15943 (Tocris Bioscience, Cat. No. 1699) respectively were also included in the experiment. The plate was incubated for one hour at room temperature with agitation. The assay plate was then incubated for an hour to allow the beads to settle before data were collected using a TopCount® (Perkin Elmer) scintillation counter. After normalization to total and non-specific binding, the percent effect at each compound concentration was calculated. The plot of percent effect versus the log of compound concentration was analyzed electronically using a 4-parameter logistic fit based on the Levenberg-Marquardt algorithm to generate IC50 values.

| SMILES | IC50 [1] | IC50 [2] | IC50 [3] |
| --- | --- | --- | --- |
| Cc1c(-c2ncco2)nc(N)n2nc([C@@H]3CCCN(c4cnn(CC(F)(F)F)c4)C3)nc12 [Example 3.5, (R)-8-methyl-7-(oxazol-2-yl)-2-(1-(1-(2,2,2-trifluoroethyl)-1H-pyrazol-4-yl)piperidin-3-yl)-[1,2,4]triazolo[1,5-c]pyrimidin-5-amine] | 0.0013 µM | 0.0344 µM |  |
| Cc1c(-c2ncco2)nc(N)n2nc([C@@H]3CCCN(c4cnn(C5CCOCC5)c4)C3)nc12 [Example 3.6, (R)-8-methyl-7-(oxazol-2-yl)-2-(1-(1-(tetrahydro-2H-pyran-4-yl)-1H-pyrazol-4-yl)piperidin-3-yl)-[1,2,4]triazolo[1,5-c]pyrimidin-5-amine] | 0.0009 µM | 0.389 µM |  |
| Cc1c(-c2ncco2)nc(N)n2nc([C@@H]3CCCN(c4cnn(CC(C)(C)O)c4)C3)nc12 [Example 3.7, (R)-1-(4-(3-(5-amino-8-methyl-7-(oxazol-2-yl)-[1,2,4]triazolo[1,5-c]pyrimidin-2-yl)piperidin-1-yl)-1H-pyrazol-1-yl)-2-methylpropan-2-ol] | 0.0047 µM | 0.224 µM |  |
| Cc1c(-c2ncco2)nc(N)n2nc([C@@H]3CCCN(c4cnn(CC5(O)CCC5)c4)C3)nc12 [Example 3.8, (R)-1-((4-(3-(5-amino-8-methyl-7-(oxazol-2-yl)-[1,2,4]triazolo[1,5-c]pyrimidin-2-yl)piperidin-1-yl)-1H-pyrazol-1-yl)methyl)cyclobutan-1-ol] | 0.0027 µM | 0.191 µM |  |
| Cc1nn(CC(C)(C)O)cc1N1CCC[C@@H](c2nc3c(C)c(-c4ncco4)nc(N)n3n2)C1 [Example 3.9, (R)-1-(4-(3-(5-amino-8-methyl-7-(oxazol-2-yl)-[1,2,4]triazolo[1,5-c]pyrimidin-2-yl)piperidin-1-yl)-3-methyl-1H-pyrazol-1-yl)-2-methylpropan-2-ol] | 0.0001 µM | 0.553 µM |  |
| Cc1c(-c2ncco2)nc(N)n2nc([C@@H]3CCCN(c4cnn(CC(C)(C)O)c4C)C3)nc12 [Example 3.10, (R)-1-(4-(3-(5-amino-8-methyl-7-(oxazol-2-yl)-[1,2,4]triazolo[1,5-c]pyrimidin-2-yl)piperidin-1-yl)-5-methyl-1H-pyrazol-1-yl)-2-methylpropan-2-ol] | 0.0021 µM | 0.535 µM |  |
| Cc1c(-c2cccc(F)c2)nc(N)n2nc([C@@H]3CCCN(c4cnn(CC(C)(C)O)c4)C3)nc12 [Example 3.11, (R)-1-(4-(3-(5-amino-7-(3-fluorophenyl)-8-methyl-[1,2,4]triazolo[1,5-c]pyrimidin-2-yl)piperidin-1-yl)-1H-pyrazol-1-yl)-2-methylpropan-2-ol] | 0.0292 µM | 0.542 µM |  |
| Cc1c(-c2ncco2)nc(N)n2nc([C@@H]3CCCN(c4cnn(C(C)C)c4)C3)nc12 [Example 3.12, (R)-2-(1-(1-isopropyl-1H-pyrazol-4-yl)piperidin-3-yl)-8-methyl-7-(oxazol-2-yl)-[1,2,4]triazolo[1,5-c]pyrimidin-5-amine] | 0.0012 µM | 0.167 µM |  |
| Cc1cc(N2CCC[C@@H](c3nc4c(C)c(-c5ncco5)nc(N)n4n3)C2)cnc1OC(F)F [Example 3.13, (R)-2-(1-(6-(difluoromethoxy)-5-methylpyridin-3-yl)piperidin-3-yl)-8-methyl-7-(oxazol-2-yl)-[1,2,4]triazolo[1,5-c]pyrimidin-5-amine] | 0.0016 µM | 0.149 µM |  |
| Cc1cc(N2CCC[C@@H](c3nc4c(C)c(-c5ncco5)nc(N)n4n3)C2)cn(C(F)F)c1=O [Example 3.14, (R)-5-(3-(5-amino-8-methyl-7-(oxazol-2-yl)-[1,2,4]triazolo[1,5-c]pyrimidin-2-yl)piperidin-1-yl)-1-(difluoromethyl)-3-methylpyridin-2(1H)-one] | 0.0002 µM | 0.116 µM |  |
| Nc1nc(-c2ccccc2)c(C2CC2)c2nc([C@@H]3CCCN(CC(F)(F)F)C3)nn12 [Example 5.5, (R)-8-cyclopropyl-7-phenyl-2-(1-(2,2,2-trifluoroethyl)piperidin-3-yl)-[1,2,4]triazolo[1,5-c]pyrimidin-5-amine] |  |  | 0.0817 µM |
| CC(C)(O)c1c(-c2ccccc2)nc(N)n2nc([C@@H]3CCCN(CC(F)(F)F)C3)nc12 [Example 6.5, (R)-2-(5-amino-7-phenyl-2-(1-(2,2,2-trifluoroethyl)piperidin-3-yl)-[1,2,4]triazolo[1,5-c]pyrimidin-8-yl)propan-2-ol] |  |  | 1.03 µM |
| C=C(C)c1c(-c2ccccc2)nc(N)n2nc([C@@H]3CCCN(CC(F)(F)F)C3)nc12 [Example 7.3, (R)-7-phenyl-8-(prop-1-en-2-yl)-2-(1-(2,2,2-trifluoroethyl)piperidin-3-yl)-[1,2,4]triazolo[1,5-c]pyrimidin-5-amine] |  |  | 0.0658 µM |
| Nc1nc(-c2ccccc2)cc2nc([C@@H]3CCCN(CC(F)F)C3)nn12 [Example 9.2, (R)-2-(1-(2,2-difluoroethyl)piperidin-3-yl)-7-phenyl-[1,2,4]triazolo[1,5-c]pyrimidin-5-amine] |  |  | 0.0109 µM |
